Laboratory results: ChEMBL document CHEMBL3286384, “Synthesis, cytotoxicity, antimicrobial and anti-biofilm activities of novel pyrazolo[3,4-b]pyridine and pyrimidine functionalized 1,2,3-triazole derivatives” (Bioorg Med Chem Lett, 2014)
Values after ≈ are worked out from the molar mass of the structure shown. Active and inactive are the calls of the source. The calls are words filed in the database; no cut-off is given here.

How the values were obtained:
HeLa = experiment: Cytotoxicity against human HeLa cells after 24 hrs by MTT assay; format: functional, cell-based
A549 = experiment: Cytotoxicity against human A549 cells after 24 hrs by MTT assay; format: functional, cell-based; settings: A549, 24 h
DU-145 = experiment: Cytotoxicity against human DU145 cells after 24 hrs by MTT assay; format: functional, cell-based; settings: DU-145, 24 h
MCF7 = experiment: Cytotoxicity against human MCF7 cells after 24 hrs by MTT assay; format: functional, cell-based; settings: MCF7, 24 h
Staphylococcus aureus [1] = experiment: Antimicrobial activity against Staphylococcus aureus MLS-16 MTCC 2940 after 24 hrs by well diffusion method; format: functional
Pseudomonas aeruginosa [2] = experiment: Antimicrobial activity against Pseudomonas aeruginosa MTCC 2453 after 24 hrs by well diffusion method; format: functional
Raoultella planticola [3] = experiment: Antimicrobial activity against Klebsiella planticola MTCC 530 after 24 hrs by well diffusion method; format: functional
Micrococcus luteus [4] = experiment: Antimicrobial activity against Micrococcus luteus MTCC 2470 after 24 hrs by well diffusion method; format: functional
Candida albicans [5] = experiment: microbe, parasite or virus in culture; settings: MTCC 3017, 24 h
Description: (§1) Antimicrobial activity against Candida albicans MTCC 3017 after 24 hrs by well diffusion method

Staphylococcus aureus [6] = experiment: Antimicrobial activity against Staphylococcus aureus MTCC 96 after 24 hrs by well diffusion method; format: functional
Escherichia coli [7] = experiment: Antimicrobial activity against Escherichia coli MTCC 739 after 24 hrs by well diffusion method; format: functional
Bacillus subtilis [8] = experiment: Antimicrobial activity against Bacillus subtilis MTCC 121 after 24 hrs by well diffusion method; format: functional
Candida albicans [9] = settings: MTCC 3017
Description: as §1

Bacillus subtilis [10] = experiment: Bactericidal activity against Bacillus subtilis MTCC 121 after 24 hrs by agar plating method; format: functional; settings: MTCC 121, 24 h
Raoultella planticola [11] = experiment: Bactericidal activity against Klebsiella planticola MTCC 530 after 24 hrs by agar plating method; format: functional; settings: MTCC 530, 24 h
Staphylococcus aureus [12] = experiment: Bactericidal activity against Staphylococcus aureus MLS-16 MTCC 2940 after 24 hrs by agar plating method; format: functional; settings: MLS-16 MTCC 2940, 24 h
Micrococcus luteus [13] = experiment: Antimicrobial activity against Micrococcus luteus MTCC 2470 assessed as inhibition of biofilm formation after 24 hrs by crystal violet staining-based assay; format: functional, organism-based; settings: MTCC 2470, 24 h
Micrococcus luteus [14] = experiment: Bactericidal activity against Micrococcus luteus MTCC 2470 after 24 hrs by agar plating method; format: functional; settings: MTCC 2470, 24 h
Raoultella planticola [15] = experiment: Antimicrobial activity against Klebsiella planticola MTCC 530 assessed as inhibition of biofilm formation after 24 hrs by crystal violet staining-based assay; format: functional, organism-based; settings: MTCC 530, 24 h
Staphylococcus aureus [16] = experiment: Antimicrobial activity against Staphylococcus aureus MTCC 96 assessed as inhibition of biofilm formation after 24 hrs by crystal violet staining-based assay; format: functional, organism-based; settings: MTCC 96, 24 h
Staphylococcus aureus [17] = experiment: Antimicrobial activity against Staphylococcus aureus MLS-16 MTCC 2940 assessed as inhibition of biofilm formation after 24 hrs by crystal violet staining-based assay; format: functional, organism-based; settings: MLS-16 MTCC 2940, 24 h
Staphylococcus aureus [18] = experiment: Bactericidal activity against Staphylococcus aureus MTCC 96 after 24 hrs by agar plating method; format: functional; settings: MTCC 96, 24 h
Pseudomonas aeruginosa [19] = experiment: Bactericidal activity against Pseudomonas aeruginosa MTCC 2453 after 24 hrs by agar plating method; format: functional; settings: MTCC 2453, 24 h
Pseudomonas aeruginosa [20] = experiment: Antimicrobial activity against Pseudomonas aeruginosa MTCC 2453 assessed as inhibition of biofilm formation after 24 hrs by crystal violet staining-based assay; format: functional, organism-based; settings: MTCC 2453, 24 h
Escherichia coli [21] = experiment: Bactericidal activity against Escherichia coli MTCC 739 after 24 hrs by agar plating method; format: functional; settings: MTCC 739, 24 h

Compound	IC50 (HeLa) [µM]	IC50 (A549) [µM]	IC50 (DU-145) [µM]	IC50 (MCF7) [µM]	MIC (Staphylococcus aureus [1]; MLS-16 MTCC 2940, 24 h) [µg/mL]	MIC (Pseudomonas aeruginosa [2]; MTCC 2453, 24 h) [µg/mL]	MIC (Raoultella planticola [3]; MTCC 530, 24 h) [µg/mL]	MIC (Candida albicans [9])	MIC (Micrococcus luteus [4]; MTCC 2470, 24 h) [µg/mL]	MIC (Staphylococcus aureus [6]; MTCC 96, 24 h) [µg/mL]	MIC (Escherichia coli [7]; MTCC 739, 24 h) [µg/mL]	MIC (Bacillus subtilis [8]; MTCC 121, 24 h) [µg/mL]	also measured
CCCCCCCCCCn1nc(-n2cc(Cn3c(N)nc(C(F)(F)F)cc3=O)nn2)c2ccc(C(F)(F)F)nc21	13.4	14.3	17.1	15.7									
Clc1ccc(COC(Cn2ccnc2)c2ccc(Cl)cc2Cl)c(Cl)c1 (centres undefined) [MICONAZOLE]													MIC (Staphylococcus aureus [1]): inactive; MIC (Pseudomonas aeruginosa [2]): inactive; MIC (Raoultella planticola [3]): inactive; MIC (Micrococcus luteus [4]): inactive; MIC (Candida albicans [5]): 7.8 µg/mL (≈ 18.7 µM); MIC (Staphylococcus aureus [6]): inactive; MIC (Escherichia coli [7]): inactive; MIC (Bacillus subtilis [8]): inactive
CCOC(=O)Cn1nc(-n2cc(Cn3c(N)nc(C(F)(F)F)cc3=O)nn2)c2ccc(C(F)(F)F)nc21	11.4	16.2	18.3	12.2									
C#CCn1nc(-n2cc(COc3cc(C(F)(F)F)nc(N)n3)nn2)c2ccc(C(F)(F)F)nc21	> 100	4.1	4.7	> 100	> 250	> 250	> 250	inactive	> 250	> 250	> 250	> 250	
CCCCCCCCn1nc(-n2cc(COc3cc(C(F)(F)F)nc(N)n3)nn2)c2ccc(C(F)(F)F)nc21	22.7	5.7	6.3	24.7	> 250	> 250	> 250	inactive	> 250	> 250	> 250	> 250	
C=CCn1nc(-n2cc(COc3cc(C(F)(F)F)nc(N)n3)nn2)c2ccc(C(F)(F)F)nc21	18.4	> 100	> 100	19.4	> 250	> 250	> 250	inactive	7.8 (≈ 16.1 µM)	> 250	> 250	> 250	
CCn1nc(-n2cc(COc3cc(C(F)(F)F)nc(N)n3)nn2)c2ccc(C(F)(F)F)nc21	> 100	25.4	27.7	> 100	> 250	> 250	> 250	inactive	> 250	> 250	> 250	> 250	
C=CCn1nc(-n2cc(Cn3c(N)nc(C(F)(F)F)cc3=O)nn2)c2ccc(C(F)(F)F)nc21	18.2	> 100	> 100	20.2									
CCOC(=O)Cn1nc(-n2cc(COc3cc(C(F)(F)F)nc(N)n3)nn2)c2ccc(C(F)(F)F)nc21	9.8	16.3	18.2	12.4	7.8 (≈ 14.7 µM)	15.6 (≈ 29.4 µM)	7.8 (≈ 14.7 µM)	inactive	> 250	15.6 (≈ 29.4 µM)	15.6 (≈ 29.4 µM)	15.6 (≈ 29.4 µM)	MBC (Bacillus subtilis [10]): 15.6 µg/mL (≈ 29.4 µM); MBC (Raoultella planticola [11]): 15.6 µg/mL (≈ 29.4 µM); MBC (Staphylococcus aureus [12]): 15.6 µg/mL (≈ 29.4 µM); IC50 (Micrococcus luteus [13]): 7.8 µg/mL (≈ 14.7 µM); MBC (Micrococcus luteus [14]): 15.6 µg/mL (≈ 29.4 µM); IC50 (Raoultella planticola [15]): 3.9 µg/mL (≈ 7.34 µM); IC50 (Staphylococcus aureus [16]): 3.9 µg/mL (≈ 7.34 µM); IC50 (Staphylococcus aureus [17]): 7.8 µg/mL (≈ 14.7 µM); MBC (Staphylococcus aureus [18]): 15.6 µg/mL (≈ 29.4 µM); MBC (Pseudomonas aeruginosa [19]): 15.6 µg/mL (≈ 29.4 µM); IC50 (Pseudomonas aeruginosa [20]): 15.6 µg/mL (≈ 29.4 µM); MBC (Escherichia coli [21]): 31.2 µg/mL (≈ 58.7 µM)
Nc1nc(OCc2cn(-c3nn(CCC(F)(F)C(F)(F)C(F)(F)C(F)(F)C(F)(F)C(F)(F)C(F)(F)C(F)(F)F)c4nc(C(F)(F)F)ccc34)nn2)cc(C(F)(F)F)n1	> 100	33.7	37.7	> 100	> 250	> 250	> 250	inactive	> 250	> 250	> 250	> 250	
